In patent US8101408B2, “Insecticidal extract from legume plants and method of preparing the same” (Her Majesty the Queen in right of Canada, as represented by …, priority 2005, dated 2012):

Columns and labels:
[1] = test system: sugar taste receptor cells of the blowfly; conditions: Ahamed et al., 2000; cited from earlier work
[2] = test system: Sitophilus oryzae; assay: Flour disk antifeedant bioassay with rice weevils (food consumption as % of control; EC50/EC90 for feeding reduction); format: in vivo; conditions: RPC isolate; 0.8 mg dose, disks from one-half the usual amount of flour (100 mg)
Protocol: The bioactivity of separated fractions was determined primarily by a flour disk antifeedant bioassay with the rice weevil (Sitophilus oryzae), an insect pest of stored products.
A glass column (1.2 cm internal diameter×20.5 cm length) equipped with a solvent reservoir and stopcock was filled with silica gel (Mallinckrodt SilicAR cc-7) using a slurry of the silica gel in chloroform (Merck OmniSolv containing 1% ethanol). The top of the bed was protected with sea sand. C8 powder (130 mg) was applied to the column, after mixing with silica gel, as a 1.25 cm band. Using a slight positive air pressure to maintain reasonable flow rates, the column was eluted with chloroform (75 ml) then with 75 ml volumes of various mixtures of chloroform and methanol followed by pure methanol (Table 1). The column was eluted with more methanol (75 ml) and finally with two additional volumes of methanol (250 ml each). […] A final evaporation was performed with a Savant apparatus (43° C.). The tubes were re-weighed, capped and transferred to the bioassay laboratory. Each sample was dissolved in 70% ethanol (0.5 ml) and 0.2 ml of that solution was added to the wheat flour (200 mg) for preparation of the disks. […] Control disks were prepared with 0.2 ml of 70% ethanol.
A test insecticidal compound is incorporated into flour disks. […] A typical dose in many of the above examples is 1.6 milligram/200 milligram flour. Wheat flour is typically used.
Reduction in feeding activity elicited by the experimental samples was compared to food consumption of untreated controls, obtained by weighing the disks before and after exposure to insects and expressed as percent feeding relative to the control. Bioassay can also include insecticidal measurements (lethality with rice weevil).
Flour disks (ca. 0.1 g/disk) were weighed before and after exposure to the insects. […] Antifeedant activity was determined by expressing consumption of treated disks as a percentage of control disks (70% ethanol). Positive controls using the same C8 extract were run with each bioassay.
The estimate and confidence limits are the values of X where the line Y=Yo crosses the regression line and its upper and lower confidence curves, respectively. The formulae can be expressed in terms of outputs from the regression analysis. Let a and b be the estimates of the intercept and slope, MSE the mean square error, n the number of observations, t the (2-sided) critical value of t with n−2 degrees of freedom, V(b) the variance (standard error squared) of b and D=b^2−t^2V(b)). Then the estimate of X is Xo=(Yo−a)/b and the confidence limits for X are X0+t^2V(b)(Y0− Y)/bD±H where H^2=t^2└D·MSE/n+V(b)(Y0− Y)^2┘/D^2. The interval is not symmetric about Xo. […]

[3] = Stability in solution or on storage judged by TLC, HPLC and mass spectrometry; format: physicochemical
Text: Samples containing soyasaponin VI, freshly prepared in 80% ethanol, could be shown to contain intact soyasaponin VI by HPLC/MS with electrospray ionization, by the appearance of the strong quasimolecular ion at mass1069. However, the samples were always contaminated with soyasaponin I (quasimolecular ion at 943).
The peptide of mass 3788 was of particular interest because its molecular weight was the same as that of PA1b described by Higgins et al. (1986). During RPC, the 3788 peptide was found in highest concentrations in the end fractions from silica gel flash chromatography of C8 with chloroform-water-methanol and then methanol as eluent (system 1 isolate).

For `CC1=C(O)C(=O)C[C@H](O[C@@H]2CC(C)(C)C[C@H]3C4=CC[C@@H]5[C@@]6(C)CC[C@H](O[C@@H]7O[C@H](C(=O)O)[C@@H](O)[C@H](O)[C@H]7O[C@@H]7O[C@H](CO)[C@H](O)[C@H](O)[C@H]7O[C@@H]7O[C@@H](C)[C@H](O)[C@@H](O)[C@H]7O)[C@](C)(CO)[C@@H]6CC[C@@]5(C)[C@]4(C)CC[C@@]23C)O1` [Soyasaponin VI, soyasaponin VI], the “effect on sugar taste receptor cells (in words)” value [1] is given as “stimulate the sugar taste receptor cells”, the “food consumption in the rice weevil bioassay” value [2] is given as 80% and the “stability (in words)” value [3] is given as “somewhat unstable in solution”.
